Assay results from paper PMC8516514 (Clinical Infectious Diseases: An Official Publication of …, 2020).
Values joined by “and” are separate entries in the source; they are usually repeats but may differ in a detail not shown here. Equal values may be shown once.

Tests used:
[1] = baseline ALT 27–45 IU/mL; cited from earlier work
HBV [2] = test: Change in serum HBV DNA, phase 1b study in patients with chronic HBV infection; assay type: in vivo, human
HBV [3] = test: Change in serum HBsAg, phase 1b study in patients with chronic HBV infection; assay type: in vivo, human
HBV [4] = test: Change in serum HBeAg, phase 1b study in patients with chronic HBV infection; assay type: in vivo, human
HBV [5] = test: Change in serum HBV pgRNA, phase 1b study in patients with chronic HBV infection; assay type: in vivo, human
HBV [6] = test: Change in serum HBcrAg, phase 1b study in patients with chronic HBV infection; assay type: in vivo, human
[7] = Plasma pharmacokinetics of GLS4 in patients with chronic HBV infection; assay type: in vivo, human; details: for AUC0–24 / AUC0–t / Cmax / Ctrough / t1/2 / Df (degree of fluctuation): mean (CV)
[8] = Safety and tolerability in patients with chronic HBV infection; assay type: in vivo, human; details: for effect of silibinin and glutathione treatment on ALT flares: subjects with ALT flares, decline in ALT level
[9] = Phase Ia pharmacokinetics of GLS4 in healthy subjects; assay type: in vivo, human; details: for mean steady-state Cmin: unpublished observations
[10] = Phase Ia tolerability in healthy subjects; assay type: in vivo, human; details: 9 days, unpublished observations
HBV [11] = system: HBV
HBV in HepG2.2.15 cell = details: cited from earlier work
[12] = preclinical study in dogs; cited from earlier work
HBV [13] = details: after NVR 3–778 treatment; cited from earlier work
HBV [14] = details: cited from earlier work
[15] = cohort A: GLS4 120 mg/day + ritonavir 100 mg/day
[16] = cohort B: GLS4 240 mg/day + ritonavir 100 mg/day
[17] = cohort A (GLS4 120 mg/day + ritonavir 100 mg/day), Day 1 (24 Hours)
[18] = cohort A (GLS4 120 mg/day + ritonavir 100 mg/day), Day 28 (24 Hours)
[19] = cohort A (GLS4 120 mg/day + ritonavir 100 mg/day), Day 28 (120 Hours)
[20] = cohort B (GLS4 240 mg/day + ritonavir 100 mg/day), Day 1 (24 Hours)
[21] = cohort B (GLS4 240 mg/day + ritonavir 100 mg/day), Day 28 (24 Hours)
[22] = cohort B (GLS4 240 mg/day + ritonavir 100 mg/day), Day 28 (120 Hours)
[23] = cohort A: GLS4 120 mg/day + ritonavir 100 mg/day, n=8
[24] = cohort B: GLS4 240 mg/day + ritonavir 100 mg/day, n=8
[25] = cohort C: entecavir 0.5 mg/day, n=8

## O=C(NCc1cnc(C(F)(F)F)s1)c1ccc2c(c1)NC(=O)c1ccccc1S2(=O)=O [ABI-H0731]
[1]
  ALT flare in phase I clinical study: without ALT flare

## CCOC(=O)C1=C(CN2CCOCC2)NC(c2nccs2)=NC1c1ccc(F)cc1Br (centres unmarked) [GLS4]
HBV [2]; cohort A (GLS4 120 mg/day + ritonavir 100 mg/day), patients 003, 005 and 022
  decline in HBV DNA levels in patients with poor response: < 0.5 log10 IU/mL
HBV [2]; [15]
  mean decline in HBV DNA after 28 days of treatment: −1.42 log10 IU/mL
HBV [2]; [16]
  mean decline in HBV DNA after 28 days of treatment: −2.13 log10 IU/mL
HBV [2]; cohorts A and B (GLS4 120 or 240 mg/day + ritonavir 100 mg/day, 28 days)
  mean change in HBV DNA following GLS4 treatment: −1.42 to −2.13 log10 IU/mL
HBV [3]; [15]
  mean decline in HBsAg after 28 days of treatment: −0.06 log10 IU/mL
HBV [3]; [16]
  mean decline in HBsAg after 28 days of treatment: −0.14 log10 IU/mL
HBV [4]; [15]
  mean decline in HBeAg after 28 days of treatment: −0.25 log10 IU/mL
HBV [4]; [16]
  mean decline in HBeAg after 28 days of treatment: −0.30 log10 IU/mL
HBV [5]; [15]
  mean decline in pgRNA after 28 days of treatment: −0.75 log10 copies/mL
HBV [5]; [16]
  mean decline in pgRNA after 28 days of treatment: −1.78 log10 copies/mL
HBV [6]; [15]
  mean decline in HBcrAg after 28 days of treatment: −0.23 log10 U/mL
HBV [6]; [16]
  mean decline in HBcrAg after 28 days of treatment: −0.5 log10 U/mL and −0.50 log10 U/mL
[7]; [17]
  Median Tmax (minimum–maximum): 3 (1.5,4) hours
  AUC0–24: 4268 (27) ng × hours/mL
  AUC0–t: 4268 (27) ng × hours/mL
  Cmax: 885 (27) ng/mL
[7]; [18]
  Median Tmax (minimum–maximum): 3 (0.5, 4) hours
  AUC0–24: 7871 (56) ng × hours/mL
  AUC0–t: 7871(56) ng × hours/mL
  Cmax: 865 (66) ng/mL
  Ctrough: 218(59) ng/mL
  t1/2: 32.1(11.7) hours
[7]; [19]
  Median Tmax (minimum–maximum): 3 (0.5, 4) hours
  AUC0–24: 7871 (56) ng × hours/mL
  Cmax: 865 (66) ng/mL
  Df (degree of fluctuation): 204 (36) %
  t1/2: 64.2 (14.8) hours
[7]; [20]
  Median Tmax (minimum–maximum): 3.5 (2, 4) hours
  AUC0–24: 8055 (34) ng × hours/mL
  AUC0–t: 8055 (34) ng × hours/mL
  Cmax: 1447 (39) ng/mL
  t1/2: 10.6 (3.3) hours
[7]; [21]
  Median Tmax (minimum–maximum): 3 (2, 4) hours
  Cmax: 1461 (24) ng/mL
  Ctrough: 205(63) ng/mL
  t1/2: 16.3(7.6) hours
[7]; [22]
  Median Tmax (minimum–maximum): 3 (2, 4) hours
  Cmax: 1461 (24) ng/mL
  Df (degree of fluctuation): 265 (33) %
  t1/2: 67.3 (24.2) hours
[7]; cohorts A and B
  accumulation rate with AUC0–24 (day 28 vs day 1): 1.6–2.0
  accumulation rate with Cmax (day 28 vs day 1): 1.1–1.2
[7]; cohorts A and B, day 28 vs day 1, AUC0–24 or Cmax
  accumulation rate: 1.1–2.0
[7]; cohorts A and B, first and last dose (days 1 and 28), with ritonavir
  time to maximum GLS4 concentration (Tmax): 3–3.5 hours and ~ 3 hours
[7]; cohorts A and B, steady state, with ritonavir 100 mg/day
  mean trough concentration (Ctrough) of GLS4: 205 to 218 ng/mL
[7]; patients, cohorts A and B
  t1/2 of GLS4 when combined with ritonavir: 64.2 to 67.3 h
[8]; 120 mg GLS4 (+ ritonavir 100 mg), 28 days
  tolerability in patients with chronic HBV infection: tolerated
[8]; [23]
  frequency of grade 3–4 adverse reactions: 2
  patients who experienced an adverse reaction: 5
  patients withdrawn due to ALT flare: 1 and 1/8
  subjects with alanine aminotransferase flare: 2 and 2/8
[8]; [24]
  frequency of grade 3–4 adverse reactions: 7
  patients who experienced an adverse reaction: 6
  patients withdrawn due to ALT flare: 2 and 2/8
  presence of SAEs: 1
  subjects with alanine aminotransferase flare: 3 and 3/8
[9]; GLS4 120 mg/day + ritonavir 100 mg/day for 9 days
  mean steady-state Cmin: 187.9 ng/mL
[9]; GLS4 240 mg/day + ritonavir 100 mg/day for 9 days
  mean steady-state Cmin: 300.7 ng/mL
[9]; without ritonavir, data not shown
  t1/2 of GLS4 monotherapy: 1.09 to 15.8 h
[10]
  tolerability of GLS4 (120 or 240 mg) in combination with 100 mg ritonavir: tolerated
HBV [11]; cohort A: patient 013, cohort B: patient 020
  efficacy in patients resistant to lamivudine or adefovir dipivoxil treatment: effective
HBV [11]; cohorts A and B, 28 days of treatment
  GLS4 resistance among patients: not observed
HBV in HepG2.2.15 cell; HepG2.2.15 cell, after correction with Human plasma protein binding
  90% effective concentration (EC90): 0.0558 µg/mL
HBV in HepG2.2.15 cell; in vitro
  anti-HBV activity in vitro compared with Bay 41–4109: better anti-HBV activity in vitro than Bay 41–4109
[12]
  tolerability: well tolerated

## O=C(Nc1cc(F)c(F)c(F)c1)c1ccc(F)c(S(=O)(=O)N2CCC(O)CC2)c1 [NVR 3–778]
HBV [13]
  mean change in HBV DNA: −1.43 log10 IU/mL
  mean decline in HBeAg: −0.09 log10 IU/mL
  mean decline in HBsAg: −0.02 log10 IU/mL

## C=C1[C@H](CO)[C@@H](O)C[C@@H]1n1cnc2c(=O)[nH]c(N)nc21 [entecavir, reference compound]
HBV [2]; cohort C: entecavir 0.5 mg/day
  mean decline in HBV DNA after 28 days of treatment: −3.5 log10 IU/mL
HBV [3]; cohort C: entecavir 0.5 mg/day
  mean decline in HBsAg after 28 days of treatment: −0.33 log10 IU/mL
HBV [5]; cohort C: entecavir 0.5 mg/day
  mean decline in pgRNA after 28 days of treatment: −0.96 log10 copies/mL
HBV [6]; cohort C: entecavir 0.5 mg/day
  mean decline in HBcrAg after 28 days of treatment: −0.44 log10 U/mL
[8]; [25]
  patients who experienced an adverse reaction: 7
  patients withdrawn due to ALT flare: 1
  subjects with alanine aminotransferase flare: 3

## N[C@@H](CCC(=O)N[C@@H](CS)C(=O)NCC(=O)O)C(=O)O [glutathione, reference compound]
[8]
  effect of silibinin and glutathione treatment on ALT flares: effective in reducing ALT flares
HBV [14]
  antiviral effects: no antiviral effects

## COc1cc(C2Oc3cc([C@H]4Oc5cc(O)cc(O)c5C(=O)[C@@H]4O)ccc3OC2CO)ccc1O (some centres unmarked) [silibinin, reference compound]
[8]
  effect of silibinin and glutathione treatment on ALT flares: effective in reducing ALT flares
HBV [14]
  antiviral effects: no antiviral effects
